Experimental data taken from ChEMBL document CHEMBL3272113, “Inhibitors of the luteinizing hormone-releasing hormone based upon modifications in the 2, 3, and 6 positions” (J Med Chem, 1976).
Square brackets hold non-standard residues; d marks the D form. Peptide text beside a SMILES is read from it. pGlu = O=C1CC[C@@H](C(=O)O)N1

What was measured:
[1] = Retardation factor of the compound using 1-BuOH-AcOH-EtOAc-H2O at ratio of 1:1:1:1 as solvent system by thin layer chromatography; assay type: physicochemical
[2] = Retardation factor of the compound using EtOH-H2O at ratio of 7:3 as solvent system by thin layer chromatography; assay type: physicochemical
[3] = Retardation factor of the compound using EtOAc-pyridine-AcOH-H2O at ratio of 5:5:1:3 as solvent system by thin layer chromatography; assay type: physicochemical
[4] = Retardation factor of the compound using 1-BuOH-pyridine-AcOH-H2O at ratio of 30:20:6:24 as solvent system by thin layer chromatography; assay type: physicochemical
[5] = Retardation factor of the compound using 2-propanol-1N AcOH at ratio of 2:1 as solvent system by thin layer chromatography; assay type: physicochemical
[6] = biological target: Gonadotropin-releasing hormone receptor (Rattus norvegicus) (UniProt P30969); assay: Agonist activity at LH-RH receptor in rat pituitary gland assessed as change in FSH secretion at 100000 ng/ml
[7] = biological target: Gonadotropin-releasing hormone receptor (Rattus norvegicus) (UniProt P30969); assay: Antagonist activity at LH-RH receptor in rat pituitary gland assessed as inhibition of LH-RH-induced FSH release
[8] = biological target: Gonadotropin-releasing hormone receptor (Rattus norvegicus) (UniProt P30969); assay: Agonist activity at LH-RH receptor in rat pituitary gland assessed as change in luteinizing hormone secretion at 100000 ng/ml
[9] = biological target: Gonadotropin-releasing hormone receptor (Rattus norvegicus) (UniProt P30969); assay: Antagonist activity at LH-RH receptor in rat pituitary gland assessed as inhibition of LH-RH-induced luteinizing hormone release
[10] = biological target: Gonadotropin-releasing hormone receptor (Rattus norvegicus) (UniProt P30969); assay: Antagonist activity at LH-RH receptor in rat pituitary gland assessed as inhibition of LH-RH-induced FSH release by measuring change in FSH level in medium at 1000 ng/ml
[11] = biological target: Gonadotropin-releasing hormone receptor (Rattus norvegicus) (UniProt P30969); assay: Antagonist activity at LH-RH receptor in rat pituitary gland assessed as inhibition of LH-RH-induced FSH release by measuring change in FSH level in medium at 10000 ng/ml
[12] = biological target: Gonadotropin-releasing hormone receptor (Rattus norvegicus) (UniProt P30969); assay: Antagonist activity at LH-RH receptor in rat pituitary gland assessed as inhibition of LH-RH-induced luteinizing hormone release by measuring change in LH level in medium at 1000 ng/ml
[13] = biological target: Gonadotropin-releasing hormone receptor (Rattus norvegicus) (UniProt P30969); assay: Antagonist activity at LH-RH receptor in rat pituitary gland assessed as inhibition of LH-RH-induced luteinizing hormone release by measuring change in LH level in medium at 10000 ng/ml
[14] = Retardation factor of the compound using CHCl3-MeOH-concentrated NH4OH as solvent system by thin layer chromatography; assay type: physicochemical
[15] = biological target: Gonadotropin-releasing hormone receptor (Rattus norvegicus) (UniProt P30969); assay: Antagonist activity at LH-RH receptor in rat pituitary gland assessed as inhibition of LH-RH-induced FSH release by measuring change in FSH level in medium at 100000 ng/ml
[16] = biological target: Gonadotropin-releasing hormone receptor (Rattus norvegicus) (UniProt P30969); assay: Antagonist activity at LH-RH receptor in rat pituitary gland assessed as inhibition of LH-RH-induced luteinizing hormone release by measuring change in LH level in medium at 100000 ng/ml
Rattus norvegicus [17] = assay: Induction of LH release in immature rat administered as infusion relative to LH-RH; assay type: functional
Rattus norvegicus [18] = assay: Induction of FSH release in immature rat administered as infusion relative to LH-RH; assay type: functional
[19] = system: Gonadotropin-releasing hormone receptor; assay: Agonist activity at LH-RH receptor (unknown origin) relative to LH-RH

Chain of Gonadotropin-releasing hormone receptor (Rattus norvegicus) (P30969 whole entry, looked up): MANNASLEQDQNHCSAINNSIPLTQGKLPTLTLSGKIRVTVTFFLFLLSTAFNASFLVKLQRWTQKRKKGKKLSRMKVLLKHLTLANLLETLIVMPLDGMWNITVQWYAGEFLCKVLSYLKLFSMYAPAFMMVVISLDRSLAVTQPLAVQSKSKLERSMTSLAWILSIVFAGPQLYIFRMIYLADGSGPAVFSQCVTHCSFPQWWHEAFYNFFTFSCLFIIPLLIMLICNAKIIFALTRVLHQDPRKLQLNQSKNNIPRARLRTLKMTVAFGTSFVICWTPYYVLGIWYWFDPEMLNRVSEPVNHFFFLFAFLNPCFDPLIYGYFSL

| SMILES | Rf [1] | Rf [2] | Rf [3] | Rf [4] | Rf [5] | Activity [6] | MED [7] | Activity [8] | MED [9] | Activity [10] | Activity [11] | Activity [12] | Activity [13] | Rf [14] | Activity [15] | Activity [16] | Activity (Rattus norvegicus [17]) | Activity (Rattus norvegicus [18]) | Activity [19] |
| --- | --- | --- | --- | --- | --- | --- | --- | --- | --- | --- | --- | --- | --- | --- | --- | --- | --- | --- | --- |
| CC(C)C[C@H](NC(=O)[C@@H]1CCC(=O)N1)C(=O)N[C@@H](CC(C)C)C(=O)N[C@@H](CO)C(=O)N[C@@H](Cc1ccc(O)cc1)C(=O)N[C@H](C)C(=O)N[C@@H](CC(C)C)C(=O)N[C@@H](CCCNC(=N)N)C(=O)N1CCC[C@H]1C(=O)NCC(N)=O | 0.69 | 0.63 | 0.8 | 0.59 | 0.67 | 1690 ng/mL | 10 µg/mL | 26 ng/mL | 10 µg/mL | 9280 ng/mL | 2700 ng/mL | 460 ng/mL | 3 ng/mL | – | – | – | – | – | – |
| CC(C)C[C@H](NC(=O)[C@@H](C)NC(=O)[C@H](Cc1ccc(O)cc1)NC(=O)[C@H](CO)NC(=O)[C@@H](NC(=O)[C@@H](NC(=O)[C@@H]1CCC(=O)N1)C(C)C)C(C)C)C(=O)N[C@@H](CCCNC(=N)N)C(=O)N1CCC[C@H]1C(=O)NCC(N)=O | 0.64 | 0.62 | 0.7 | – | 0.54 | 850 ng/mL | 100 µg/mL | 17 ng/mL | 100 µg/mL | – | 4810 ng/mL | – | 313 ng/mL | 0.53 | 770 ng/mL | 35 ng/mL | – | – | – |
| CCNC(=O)[C@@H]1CCCN1C(=O)[C@H](CCCNC(=N)N)NC(=O)[C@H](CC(C)C)NC(=O)[C@@H](C)NC(=O)[C@H](Cc1ccc(O)cc1)NC(=O)[C@H](CO)NC(=O)[C@H](Cc1c[nH]c2ccccc12)NC(=O)[C@H](Cc1cnc[nH]1)NC(=O)[C@@H]1CCC(=O)N1 | – | – | – | – | – | – | – | – | – | – | – | – | – | – | – | – | 1600% | 1200% | – |
| CC(C)C[C@H](NC(=O)[C@@H]1CCC(=O)N1)C(=O)N[C@H](C(=O)N[C@@H](CO)C(=O)N[C@@H](Cc1ccc(O)cc1)C(=O)N[C@H](C)C(=O)N[C@@H](CC(C)C)C(=O)N[C@@H](CCCNC(=N)N)C(=O)N1CCC[C@H]1C(=O)NCC(N)=O)C(C)C | 0.66 | 0.62 | 0.71 | – | 0.57 | -185 ng/mL | 100 µg/mL | -37 ng/mL | 100 µg/mL | – | 3770 ng/mL | – | 150 ng/mL | 0.58 | -399 ng/mL | 13 ng/mL | – | – | – |
| CC(C)C[C@H](NC(=O)CNC(=O)[C@H](Cc1ccc(O)cc1)NC(=O)[C@H](CO)NC(=O)[C@H](CC(C)C)NC(=O)[C@H](CC(C)C)NC(=O)[C@@H]1CCC(=O)N1)C(=O)N[C@@H](CCCNC(=N)N)C(=O)N1CCC[C@H]1C(=O)NCC(N)=O ([pGlu]LLSYGLRPG-NH2) | – | – | – | – | – | – | 100 µg/mL | – | 100 µg/mL | – | – | – | – | – | – | – | – | – | – |
| CC(C)C[C@H](NC(=O)CNC(=O)[C@H](Cc1ccc(O)cc1)NC(=O)[C@H](CO)NC(=O)[C@H](Cc1c[nH]c2ccccc12)NC(=O)[C@@H]1CCC(=O)N1)C(=O)N[C@@H](CCCNC(=N)N)C(=O)N1CCC[C@H]1C(=O)NCC(N)=O ([pGlu]WSYGLRPG-NH2) | – | – | – | – | – | – | 30 µg/mL | – | 30 µg/mL | – | – | – | – | – | – | – | – | – | – |
| CC(C)C[C@H](NC(=O)[C@@H](C)NC(=O)[C@H](Cc1ccc(O)cc1)NC(=O)[C@H](CO)NC(=O)[C@H](Cc1c[nH]c2ccccc12)NC(=O)[C@H](Cc1cnc[nH]1)NC(=O)[C@@H]1CCC(=O)N1)C(=O)N[C@@H](CCCNC(=N)N)C(=O)N1CCC[C@H]1C(=O)NCC(N)=O | – | – | – | – | – | – | – | – | – | – | – | – | – | – | – | – | – | – | 300% |
| CC(C)C[C@H](NC(=O)[C@@H](NC(=O)[C@@H]1CCC(=O)N1)C(C)C)C(=O)N[C@@H](CO)C(=O)N[C@@H](Cc1ccc(O)cc1)C(=O)N[C@H](C)C(=O)N[C@@H](CC(C)C)C(=O)N[C@@H](CCCNC(=N)N)C(=O)N1CCC[C@H]1C(=O)NCC(N)=O | 0.66 | 0.62 | 0.71 | – | 0.58 | 158 ng/mL | 10 µg/mL | -9 ng/mL | 10 µg/mL | 6170 ng/mL | 1260 ng/mL | 246 ng/mL | 28 ng/mL | 0.58 | – | – | – | – | – |
